Reference: PubChem BioAssay (NCI)
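Cultured in 96-well plates, cells were exposed to test compound for 48 hours across five concentrations. The concentration for full growth arrest is given as TGI.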

Experiments:
Test in all cases: inhibition of tumour cell growth, NCI panel, 48 h
[1] = tested on: SF-295 CNS
[2] = tested on: OVCAR-8 ovarian
[3] = tested on: NCI-H460 lung
[4] = tested on: CAKI-1 renal
[5] = tested on: A498 renal
[6] = tested on: HCC-2998 colon
[7] = tested on: OVCAR-4 ovarian
[8] = tested on: RXF 393 renal
[9] = tested on: LOX IMVI melanoma
[10] = tested on: IGROV1 ovarian
[11] = tested on: KM20L2 colon
[12] = tested on: DMS 114 small cell lung
[13] = tested on: SK-OV-3 ovarian
[14] = tested on: TK-10 renal
[15] = tested on: EKVX NSCLC
[16] = tested on: M19-MEL melanoma
[17] = tested on: RPMI-8226 leukemia
[18] = tested on: MALME-3M melanoma
[19] = tested on: HCT-116 colon
[20] = tested on: UO-31 renal
[21] = tested on: SN12C renal
[22] = tested on: HOP-62 NSCLC
[23] = tested on: LXFL 529 NSCLC
[24] = tested on: SNB-78 CNS
[25] = tested on: SW-620 colon
[26] = tested on: M14 melanoma
[27] = tested on: HOP-92 NSCLC
[28] = tested on: HOP-18 NSCLC
[29] = tested on: SF-539 CNS
[30] = tested on: NCI-H23 lung
[31] = tested on: XF 498 CNS
[32] = tested on: UACC-62 melanoma
[33] = tested on: KM12 colon
[34] = tested on: U251 CNS
[35] = tested on: NCI-H522 lung
[36] = tested on: HCT-15 colon
[37] = tested on: DLD-1 colon
[38] = tested on: ACHN renal
[39] = tested on: K-562 leukemia
[40] = tested on: DMS 273 small cell lung
[41] = tested on: RXF-631 renal
[42] = tested on: UACC-257 melanoma
[43] = tested on: 786-0 renal
[44] = tested on: SK-MEL-28 melanoma
[45] = tested on: OVCAR-3 ovarian
[46] = tested on: SNB-75 CNS
[47] = tested on: SK-MEL-2 melanoma
[48] = tested on: SNB-19 CNS
[49] = tested on: A549 NSCLC
[50] = tested on: SK-MEL-5 melanoma
[51] = tested on: SR leukemia
[52] = tested on: SF-268 CNS
[53] = tested on: HL-60(TB) leukemia
[54] = tested on: HT29 colon
[55] = tested on: OVCAR-5 ovarian
[56] = tested on: CCRF-CEM leukemia
[57] = tested on: MOLT-4 leukemia
[58] = tested on: COLO 205 colon
[59] = tested on: NCI-H226 lung

C[C@]12CC[C@H](OC3CCCCO3)CC1=CC[C@@H]1C2CC[C@]2(C)/C(=N/OCCC#N)CCC12 (stereo partly drawn)
TGI [1]: > 100 µM
TGI [2]: > 100 µM
TGI [3]: > 100 µM
TGI [4]: > 100 µM
TGI [5]: > 100 µM
TGI [6]: > 100 µM
TGI [7]: 66.5 µM
TGI [8]: 40.2 µM
TGI [9]: > 100 µM
TGI [10]: > 100 µM
TGI [11]: > 100 µM
TGI [12]: > 100 µM
TGI [13]: > 100 µM
TGI [14]: 72.9 µM
TGI [15]: > 100 µM
TGI [16]: > 100 µM
TGI [17]: > 100 µM
TGI [18]: > 100 µM
TGI [19]: > 100 µM
TGI [20]: > 100 µM
TGI [21]: > 100 µM
TGI [22]: > 100 µM
TGI [23]: > 100 µM
TGI [24]: 72.1 µM
TGI [25]: > 100 µM
TGI [26]: > 100 µM
TGI [27]: 57.6 µM
TGI [28]: > 100 µM
TGI [29]: > 100 µM
TGI [30]: 95.1 µM
TGI [31]: 20.5 µM
TGI [32]: > 100 µM
TGI [33]: > 100 µM
TGI [34]: > 100 µM
TGI [35]: > 100 µM
TGI [36]: > 100 µM
TGI [37]: > 100 µM
TGI [38]: > 100 µM
TGI [39]: > 100 µM
TGI [40]: > 100 µM
TGI [41]: > 100 µM
TGI [42]: > 100 µM
TGI [43]: 72.2 µM
TGI [44]: > 100 µM
TGI [45]: > 100 µM
TGI [46]: 58.4 µM
TGI [47]: > 100 µM
TGI [48]: > 100 µM
TGI [49]: > 100 µM
TGI [50]: > 100 µM

Cc1ccc(NC(=O)CC(=O)n2nc(-c3ccccc3)c(N=Nc3ccccc3[N+](=O)[O-])c2-c2ccccc2)cc1
TGI [1]: > 100 µM
TGI [2]: > 100 µM
TGI [3]: > 100 µM
TGI [4]: > 100 µM
TGI [6]: > 100 µM
TGI [7]: > 100 µM
TGI [51]: > 100 µM
TGI [52]: > 100 µM
TGI [8]: > 100 µM
TGI [9]: > 100 µM
TGI [10]: > 100 µM
TGI [11]: > 100 µM
TGI [12]: > 100 µM
TGI [13]: > 100 µM
TGI [14]: > 100 µM
TGI [15]: > 100 µM
TGI [16]: > 100 µM
TGI [17]: > 100 µM
TGI [18]: > 100 µM
TGI [19]: > 100 µM
TGI [20]: > 100 µM
TGI [21]: > 100 µM
TGI [22]: > 100 µM
TGI [53]: > 100 µM
TGI [23]: > 100 µM
TGI [24]: > 100 µM
TGI [25]: > 100 µM
TGI [26]: > 100 µM
TGI [27]: > 100 µM
TGI [28]: > 100 µM
TGI [29]: > 100 µM
TGI [30]: > 100 µM
TGI [54]: > 100 µM
TGI [31]: > 100 µM
TGI [32]: > 100 µM
TGI [33]: > 100 µM
TGI [34]: > 100 µM
TGI [35]: > 100 µM
TGI [37]: > 100 µM
TGI [38]: > 100 µM
TGI [39]: > 100 µM
TGI [40]: > 100 µM
TGI [55]: > 100 µM
TGI [41]: > 100 µM
TGI [56]: > 100 µM
TGI [42]: > 100 µM
TGI [43]: > 100 µM
TGI [44]: > 100 µM
TGI [45]: > 100 µM
TGI [57]: > 100 µM
TGI [46]: > 100 µM
TGI [47]: > 100 µM
TGI [48]: > 100 µM
TGI [49]: > 100 µM
TGI [50]: > 100 µM
TGI [58]: > 100 µM

CCOC(=O)c1sc2c(sc(=O)n2-c2ccccc2)c1O
TGI [1]: > 100 µM
TGI [2]: > 100 µM
TGI [3]: > 100 µM
TGI [4]: > 100 µM
TGI [5]: > 100 µM
TGI [6]: > 100 µM
TGI [7]: > 100 µM
TGI [51]: > 100 µM
TGI [52]: > 100 µM
TGI [8]: > 100 µM
TGI [9]: > 100 µM
TGI [10]: > 100 µM
TGI [11]: > 100 µM
TGI [12]: > 100 µM
TGI [13]: > 100 µM
TGI [14]: > 100 µM
TGI [15]: > 100 µM
TGI [16]: > 100 µM
TGI [18]: > 100 µM
TGI [19]: > 100 µM
TGI [59]: > 100 µM
TGI [20]: > 100 µM
TGI [21]: > 100 µM
TGI [22]: > 100 µM
TGI [53]: > 100 µM
TGI [23]: > 100 µM
TGI [24]: > 100 µM
TGI [26]: > 100 µM
TGI [27]: > 100 µM
TGI [28]: > 100 µM
TGI [29]: > 100 µM
TGI [30]: > 100 µM
TGI [54]: > 100 µM
TGI [31]: > 100 µM
TGI [32]: > 100 µM
TGI [33]: > 100 µM
TGI [34]: > 100 µM
TGI [35]: > 100 µM
TGI [36]: > 100 µM
TGI [37]: > 100 µM
TGI [38]: > 100 µM
TGI [39]: > 100 µM
TGI [40]: > 100 µM
TGI [55]: > 100 µM
TGI [41]: > 100 µM
TGI [56]: > 100 µM
TGI [42]: > 100 µM
TGI [43]: > 100 µM
TGI [44]: > 100 µM
TGI [45]: > 100 µM
TGI [57]: > 100 µM
TGI [46]: > 100 µM
TGI [47]: > 100 µM
TGI [48]: > 100 µM
TGI [49]: > 100 µM
TGI [50]: > 100 µM
TGI [58]: > 100 µM

C/C(=N/NC(=O)c1ccccc1O)c1ccc(/C(C)=N\NC(=O)c2ccccc2O)c2nc3cc(C)c(C)cc3nc12
TGI [1]: > 100 µM
TGI [2]: > 100 µM
TGI [3]: > 100 µM
TGI [5]: > 100 µM
TGI [6]: > 100 µM
TGI [7]: > 100 µM
TGI [52]: > 100 µM
TGI [8]: > 100 µM
TGI [9]: > 100 µM
TGI [10]: > 100 µM
TGI [11]: > 100 µM
TGI [12]: > 100 µM
TGI [13]: > 100 µM
TGI [14]: > 100 µM
TGI [15]: > 100 µM
TGI [16]: > 100 µM
TGI [18]: > 100 µM
TGI [19]: > 100 µM
TGI [59]: > 100 µM
TGI [20]: > 100 µM
TGI [21]: > 100 µM
TGI [22]: > 100 µM
TGI [23]: > 100 µM
TGI [24]: > 100 µM
TGI [25]: > 100 µM
TGI [26]: > 100 µM
TGI [27]: > 100 µM
TGI [28]: > 100 µM
TGI [29]: > 100 µM
TGI [30]: > 100 µM
TGI [54]: > 100 µM
TGI [31]: > 100 µM
TGI [32]: > 100 µM
TGI [33]: > 100 µM
TGI [34]: > 100 µM
TGI [35]: > 100 µM
TGI [36]: > 100 µM
TGI [37]: > 100 µM
TGI [38]: > 100 µM
TGI [39]: > 100 µM
TGI [40]: > 100 µM
TGI [55]: > 100 µM
TGI [41]: > 100 µM
TGI [56]: > 100 µM
TGI [42]: > 100 µM
TGI [43]: > 100 µM
TGI [44]: > 100 µM
TGI [45]: > 100 µM
TGI [57]: > 100 µM
TGI [46]: > 100 µM
TGI [47]: > 100 µM
TGI [48]: > 100 µM
TGI [49]: > 100 µM
TGI [50]: > 100 µM
TGI [58]: > 100 µM

COC(=O)C1=C(C(=O)OC)C2(C3C(SC)=CC(C)(C)CC3S1)N(Cc1ccccc1)CCN2Cc1ccccc1 (stereo not drawn)
TGI [1]: > 100 µM
TGI [2]: > 100 µM
TGI [3]: > 100 µM
TGI [4]: > 100 µM
TGI [7]: > 100 µM
TGI [52]: > 100 µM
TGI [8]: > 100 µM
TGI [9]: > 100 µM
TGI [10]: > 100 µM
TGI [11]: > 100 µM
TGI [12]: > 100 µM
TGI [13]: > 100 µM
TGI [14]: > 100 µM
TGI [15]: > 100 µM
TGI [16]: > 100 µM
TGI [17]: > 100 µM
TGI [18]: > 100 µM
TGI [19]: > 100 µM
TGI [59]: > 100 µM
TGI [20]: > 100 µM
TGI [21]: > 100 µM
TGI [22]: > 100 µM
TGI [23]: > 100 µM
TGI [24]: > 100 µM
TGI [25]: > 100 µM
TGI [26]: > 100 µM
TGI [27]: 16.1 µM
TGI [28]: > 100 µM
TGI [29]: > 100 µM
TGI [30]: > 100 µM
TGI [54]: > 100 µM
TGI [31]: > 100 µM
TGI [32]: > 100 µM
TGI [33]: > 100 µM
TGI [34]: > 100 µM
TGI [35]: > 100 µM
TGI [36]: > 100 µM
TGI [37]: > 100 µM
TGI [38]: > 100 µM
TGI [39]: > 100 µM
TGI [40]: > 100 µM
TGI [55]: > 100 µM
TGI [41]: > 100 µM
TGI [56]: > 100 µM
TGI [42]: > 100 µM
TGI [43]: > 100 µM
TGI [44]: > 100 µM
TGI [45]: > 100 µM
TGI [57]: > 100 µM
TGI [46]: > 100 µM
TGI [47]: > 100 µM
TGI [48]: > 100 µM
TGI [49]: > 100 µM
TGI [50]: > 100 µM
TGI [58]: > 100 µM
